Test results reported in ChEMBL document CHEMBL5365421, “Design, synthesis, antitumor activity, and molecular dynamics simulations of novel sphingosine kinase 2 inhibitors” (Bioorg Med Chem, 2023).

Assays:
Sphingosine kinase 2 [1] = target: T1, Sphingosine kinase 2 (Homo sapiens, UniProt Q9NRA0); test: Inhibition of SphK2 (unknown origin) using NBD-Sph as substrate by fluorescent plate reader analysis
T1 sequence (Q9NRA0 whole entry): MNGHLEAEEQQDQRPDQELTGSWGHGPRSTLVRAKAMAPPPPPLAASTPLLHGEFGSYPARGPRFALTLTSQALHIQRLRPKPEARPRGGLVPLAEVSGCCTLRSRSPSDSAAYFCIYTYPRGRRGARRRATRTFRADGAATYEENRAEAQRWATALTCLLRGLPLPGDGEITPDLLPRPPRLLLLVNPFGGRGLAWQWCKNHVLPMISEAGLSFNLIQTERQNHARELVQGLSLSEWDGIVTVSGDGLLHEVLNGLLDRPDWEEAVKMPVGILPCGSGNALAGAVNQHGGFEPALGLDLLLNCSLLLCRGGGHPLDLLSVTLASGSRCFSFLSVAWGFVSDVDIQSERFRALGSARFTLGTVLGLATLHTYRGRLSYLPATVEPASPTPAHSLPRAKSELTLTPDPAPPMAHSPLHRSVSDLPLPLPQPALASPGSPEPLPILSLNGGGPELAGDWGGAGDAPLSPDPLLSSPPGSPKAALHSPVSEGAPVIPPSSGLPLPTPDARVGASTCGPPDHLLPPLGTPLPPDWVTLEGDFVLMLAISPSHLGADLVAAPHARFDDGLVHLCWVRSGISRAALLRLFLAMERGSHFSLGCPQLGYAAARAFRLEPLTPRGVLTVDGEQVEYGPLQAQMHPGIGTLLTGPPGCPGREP

MCF7 [2] = test: Antiproliferative activity against human MCF7 cells assessed as cell growth inhibition measured after 48 hrs by MTT assay; type: functional, cell-based; details: MCF7, 48 h
U-937 = test: Antiproliferative activity against human U-937 cells assessed as cell growth inhibition measured after 48 hrs by MTT assay; type: functional, cell-based; details: U-937, 48 h
MGC-803 = test: Antiproliferative activity against human MGC-803 cells assessed as cell growth inhibition measured after 48 hrs by MTT assay; type: functional, cell-based; details: MGC-803, 48 h
Sphingosine kinase 1 = Sphingosine kinase 1 (Homo sapiens, UniProt Q9NYA1); test: Inhibition of SphK1 (unknown origin) using D-Sph as substrate incubated for 40 mins by ADP-Glo Plus luminescence kinase assay
Chain of Sphingosine kinase 1 (Q9NYA1 whole entry): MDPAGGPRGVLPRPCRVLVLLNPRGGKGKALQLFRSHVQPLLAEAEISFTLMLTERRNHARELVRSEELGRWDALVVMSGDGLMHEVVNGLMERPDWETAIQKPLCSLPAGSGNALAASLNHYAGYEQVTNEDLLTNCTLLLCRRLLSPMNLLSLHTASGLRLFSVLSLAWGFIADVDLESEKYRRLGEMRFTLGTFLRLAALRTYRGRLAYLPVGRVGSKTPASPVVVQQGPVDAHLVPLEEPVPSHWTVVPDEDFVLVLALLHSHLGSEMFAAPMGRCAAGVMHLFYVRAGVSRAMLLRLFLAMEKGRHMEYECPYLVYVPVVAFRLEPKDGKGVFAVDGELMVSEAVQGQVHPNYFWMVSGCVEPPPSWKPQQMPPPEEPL

MCF7 [3] = test: Inhibition of cell migration in human MCF7 cells assessed as reduction in scratch healing rate measured after 24 to 48 hrs by microscopic analysis; type: functional, cell-based; details: dose 20-100 µM, time lower 24.0 hrs, time upper […]
[4] = target: T2, Sphingosine kinase 2 (Homo sapiens) (UniProt Q9NRA0); test: Inhibition of SphK2 (unknown origin) using NBD-Sph as substrate at 10 uM by fluorescent plate reader analysis relative to control
T2 sequence (whole entry): T1 sequence (Q9NRA0 whole entry)

Sphingosine kinase 2 [5] = target: T1, Sphingosine kinase 2; test: Inhibition of recombinant SphK2 (unknown origin) using sphingosine as substrate assessed as inhibition constant by Lineweaver-burk plot analysis

Row | Structure (SMILES) | IC50 (Sphingosine kinase 2 [1]) | IC50 (MCF7 [2]) | IC50 (U-937) | IC50 (MGC-803) | IC50 (Sphingosine kinase 1) | inhibition [4] | Ki (Sphingosine kinase 2 [5]) | inhibition (MCF7 [3])
1 | O=C(NCCO)c1ccc(OCc2noc(-c3ccc(C(F)(F)F)cc3)n2)cc1 | 0.0358 µM | 58 µM | 68.9 µM | 26.1 µM | – | – | – | –
2 | NC(=O)CNC(=O)c1ccc(OCc2noc(-c3ccc(C(F)(F)F)cc3)n2)cc1 | > 10 µM | 39.7 µM | 8.44 µM | 10.9 µM | – | – | – | –
3 | CCCCCOc1ccc2cc(-c3noc([C@@H]4[C@@H](O)CCN4C(=N)N)n3)ccc2c1 | 4 µM | – | – | – | – | – | – | –
4 | NC(=O)[C@H]1CCCN1C(=O)c1ccc(OCc2noc(-c3ccc(C(F)(F)F)cc3)n2)cc1 | 0.0024 µM | 24.4 µM | 25.6 µM | 19.2 µM | 21.9 µM | – | – | Dose-Dependent Effect
5 | O=C(NCCO)c1ccc(OCc2noc(-c3ccc(Cl)cc3)n2)cc1 | > 10 µM | 55.2 µM | 20.1 µM | 37 µM | – | < 50% | – | –
6 | O=C(c1ccc(OCc2noc(-c3ccc(C(F)(F)F)cc3)n2)cc1)N1CCC[C@H]1CO | 2.46 µM | 51.9 µM | 29.4 µM | 43 µM | – | – | – | –
7 | CCCCOc1ccc(CC/C=C2\SC(=O)N(CCN)C2=O)cc1 | – | – | – | – | – | – | 6.5 µM | –
8 | NCCNC(=O)c1ccc(OCc2noc(-c3ccc(Cl)cc3)n2)cc1 | > 10 µM | 54 µM | 31.4 µM | 42 µM | 1.47 µM | < 50% | – | –
9 | O=C(c1ccc(OCc2noc(-c3ccc(Cl)cc3)n2)cc1)N1CCC[C@H]1CO | > 10 µM | 8.61 µM | 17.3 µM | 22.9 µM | 8.96 µM | < 50% | – | –
10 | NCCNC(=O)c1ccc(OCc2noc(-c3ccc(C(F)(F)F)cc3)n2)cc1 | > 10 µM | 39.6 µM | 32.9 µM | 40.8 µM | – | – | – | –
11 | O=C(c1ccc(OCc2noc(-c3ccc(Cl)cc3)n2)cc1)N1CCC[C@@H]1CO | > 10 µM | 45.3 µM | 2.95 µM | 40.3 µM | 7.76 µM | < 50% | – | –
12 | NC(=O)CNC(=O)c1ccc(OCc2noc(-c3ccc(Cl)cc3)n2)cc1 | > 10 µM | 55.4 µM | 10 µM | 29.8 µM | – | < 50% | – | –
13 | O=C(c1ccc(OCc2noc(-c3ccc(C(F)(F)F)cc3)n2)cc1)N1CCC[C@@H]1CO | 0.00343 µM | 21.1 µM | 51.1 µM | 35.9 µM | 17.7 µM | – | – | Dose-Dependent Effect

Now from value to molecule, other results behind:

Row | IC50 (Sphingosine kinase 2 [1]) | IC50 (MCF7 [2]) | IC50 (U-937) | IC50 (MGC-803) | IC50 (Sphingosine kinase 1) | inhibition [4] | Ki (Sphingosine kinase 2 [5]) | Structure (SMILES) | inhibition (MCF7 [3])
14 | 0.0115 µM | 20.3 µM | 32.7 µM | 33.8 µM | – | – | – | NC(=O)CNC(=O)c1ccc(COc2cccc(OCc3ccccc3)c2)cc1 | –
15 | > 10 µM | 7.63 µM | 47.8 µM | 20.2 µM | – | < 50% | – | NC(=O)[C@H]1CCCN1C(=O)c1ccc(OCc2noc(-c3ccc(Cl)cc3)n2)cc1 | –
16 | 0.00191 µM | > 100 µM | 37.6 µM | 32.2 µM | 0.917 µM | – | – | OC[C@@H]1CCCN1Cc1ccc(COc2cccc(OCc3ccccc3)c2)cc1 | –
17 | > 10 µM | 12.8 µM | 25.6 µM | 22.9 µM | – | – | – | NC(=O)[C@@H]1CCCN1C(=O)c1ccc(OCc2noc(-c3ccc(C(F)(F)F)cc3)n2)cc1 | –
18 | > 10 µM | 21.5 µM | 43.3 µM | 63.6 µM | – | – | – | NC(=O)[C@@H]1CCCN1Cc1ccc(COc2cccc(OCc3ccccc3)c2)cc1 | –
19 | > 10 µM | 18.3 µM | 41.5 µM | 65.2 µM | 0.924 µM | – | – | NC(=O)[C@H]1CCCN1Cc1ccc(COc2cccc(OCc3ccccc3)c2)cc1 | –
20 | 0.0115 µM | > 100 µM | > 80.2 µM | 15.7 µM | 0.446 µM | – | – | OCC1CCCN1Cc1ccc(COc2cccc(OCc3ccccc3)c2)cc1 (single isomer, unassigned) | –
21 | 1.25 µM | 34.7 µM | 34.7 µM | 37.7 µM | 35.6 µM | – | – | O=C(NCCO)c1ccc(COc2cccc(OCc3ccccc3)c2)cc1 | –
22 | 0.0462 µM | 42.7 µM | > 82.3 µM | 55.3 µM | 30.4 µM | – | – | NC(=O)CNCc1ccc(COc2cccc(OCc3ccccc3)c2)cc1 | –
23 | 0.96 µM | > 100 µM | 45.6 µM | > 81.5 µM | – | – | – | NC(=O)[C@H]1CCCN1C(=O)c1ccc(COc2cccc(OCc3ccccc3)c2)cc1 | –
24 | 1.23 µM | 30.5 µM | 69.5 µM | 61.8 µM | – | – | – | O=C(c1ccc(COc2cccc(OCc3ccccc3)c2)cc1)N1CCC[C@@H]1CO | –
25 | 0.0416 µM | 53.5 µM | 51.4 µM | 25.1 µM | – | – | – | NCCNC(=O)c1ccc(COc2cccc(OCc3ccccc3)c2)cc1 | –
26 | > 10 µM | > 100 µM | > 100 µM | 38.6 µM | 66.2 µM | – | – | NC(=O)[C@@H]1CCCN1C(=O)c1ccc(COc2cccc(OCc3ccccc3)c2)cc1 | –
27 | > 10 µM | > 100 µM | 31.2 µM | 40.6 µM | – | < 50% | – | NC(=O)[C@@H]1CCCN1C(=O)c1ccc(OCc2noc(-c3ccc(Cl)cc3)n2)cc1 | –
28 | > 10 µM | > 100 µM | 29.9 µM | > 79.8 µM | – | < 50% | – | O=C(c1ccc(COc2cccc(OCc3ccccc3)c2)cc1)N1CCC[C@H]1CO | –
